The target in experiment [1] is T1, bradykinin 1 receptor (B1R) of the rat (Rattus norvegicus, UniProt P97583).
T1 construct: expressed in transfected cells; host or cells: CHO K1 cells
T1 sequence (P97583 1-337): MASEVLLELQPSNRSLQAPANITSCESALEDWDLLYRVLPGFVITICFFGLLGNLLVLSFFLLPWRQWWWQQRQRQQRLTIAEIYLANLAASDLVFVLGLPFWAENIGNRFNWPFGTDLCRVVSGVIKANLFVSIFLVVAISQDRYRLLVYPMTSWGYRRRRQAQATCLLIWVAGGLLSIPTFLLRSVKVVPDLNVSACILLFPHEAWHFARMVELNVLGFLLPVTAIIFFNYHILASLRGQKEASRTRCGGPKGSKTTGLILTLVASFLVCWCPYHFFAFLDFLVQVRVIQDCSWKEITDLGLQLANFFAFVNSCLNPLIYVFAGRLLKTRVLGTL
The experiment is described as follows: Functional investigation on the rat bradykinin 1 receptor (B1R), Ca2+ FLIPR assay in CHO K1 rB1R cells. Particulars: test substance 10 μM; for inhibition at 10 µM: CHO-K1, B1R antagonism rat, read-out: B1R Ant. r [10 μM] % Inhibition. The experiment is classed as cell-based. The procedure, abridged: (§1)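 Cells were dye-loaded with Fluo-4 plus probenecid, then test substances added and Ca2+ influx compared with agonist control for % activation. After 10-20 min, EC80 agonist (Lys-Des-Arg9-bradykinin human; Des-Arg9-bradykinin rat) was applied; suppression gave % inhibition and IC50 values.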

A further experiment concerns the target T2, human μ opiate receptor (Homo sapiens, UniProt P35372).
T2 construct: purchased PerkinElmer Life Sciences, Zaventem, Belgium RB-HOM; host or cells: CHO-K1 cells (membrane preparation)
The experiment is described as follows: Affinity for the human μ opiate receptor ([3H]-naloxone displacement, CHO-K1 receptor membrane preparation, SPA). The experiment is classed as binding. The settings on record: test concentration 1 μM; for inhibition at 1 µM: 1.5 h. The procedure, abridged: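 Scintillation proximity binding on human μ receptor membranes from CHO-K1 cells used 1 nmol/l [3H]-naloxone over 90 min at room temperature in 50 mmol/l Tris-HCl, 0.06% BSA. Percent inhibition was recorded at 1 μM.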

Experiment [2] has as its target T3, human bradykinin 1 receptor (B1R) (Homo sapiens, UniProt P46663).
T3 construct: expressed in transfected cells; host or cells: CHO K1 cells
T3 sequence (P46663 1-353): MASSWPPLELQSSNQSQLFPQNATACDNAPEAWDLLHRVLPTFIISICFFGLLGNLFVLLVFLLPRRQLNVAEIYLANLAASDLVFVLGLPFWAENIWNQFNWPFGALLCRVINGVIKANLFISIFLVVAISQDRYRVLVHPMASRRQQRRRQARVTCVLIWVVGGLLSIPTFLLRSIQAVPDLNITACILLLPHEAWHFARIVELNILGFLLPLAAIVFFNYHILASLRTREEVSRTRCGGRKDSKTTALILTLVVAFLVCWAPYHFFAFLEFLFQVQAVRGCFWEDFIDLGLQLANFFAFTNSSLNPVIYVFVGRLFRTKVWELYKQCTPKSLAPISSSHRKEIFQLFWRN
The experiment in a line: Functional investigation on the human bradykinin 1 receptor (B1R), Ca2+ FLIPR assay in CHO K1 hB1R cells. Particulars: test substance 10 μM; for inhibition at 10 µM: CHO-K1, B1R antagonism human, read-out: B1R Ant. h [10 μM] % Inhibition. The experiment is classed as cell-based. The procedure, abridged:
as §1

The mark [3] stands for this setting: Table 3, to be read in the same way as Table 1, read-out: μ.
Where [4] appears, read: % inhibition compared with the maximum achievable inhibition.

Where two headings read alike, the source gives them in different places.

T2 sequence (P35372 whole entry): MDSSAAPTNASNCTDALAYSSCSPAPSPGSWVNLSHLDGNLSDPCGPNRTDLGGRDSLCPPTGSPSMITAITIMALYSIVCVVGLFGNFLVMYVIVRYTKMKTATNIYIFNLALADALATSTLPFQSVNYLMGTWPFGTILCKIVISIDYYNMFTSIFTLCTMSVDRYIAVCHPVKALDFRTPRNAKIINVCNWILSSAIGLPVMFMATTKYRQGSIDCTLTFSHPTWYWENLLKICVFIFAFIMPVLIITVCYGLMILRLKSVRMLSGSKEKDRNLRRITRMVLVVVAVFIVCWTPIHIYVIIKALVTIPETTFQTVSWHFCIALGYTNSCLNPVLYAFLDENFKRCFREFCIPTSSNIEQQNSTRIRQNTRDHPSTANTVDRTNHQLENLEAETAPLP

For the molecule `O=C(COC1CCCN(S(=O)(=O)c2c(Cl)cc(Cl)cc2Cl)C1)NC1CCC(C(CCc2ccccc2)N2CCCCC2)CC1` (stereo not drawn) [Example 673, N-(4-(3-phenyl-1-(piperidin-1-yl)propyl)cyclohexyl)-2-(1-(2,4,6-trichlorophenylsulfonyl)piperidin-3-yloxy)acetamide], the inhibition at 10 µM came out at 20% in experiment [1] (Ca2+ FLIPR, CHO K1 rB1R cells) and 57% in experiment [2] (Ca2+ FLIPR, CHO K1 hB1R cells). Moreover, the inhibition at 1 µM on human μ opiate receptor (setting [3]) was 71%.
For `CN(CCOCC(=O)NC1CCC(C(CCc2ccccc2)N2CCOCC2)CC1)S(=O)(=O)c1c(Cl)cc(Cl)cc1Cl` (stereo not drawn) [Example 636, N-(4-(1-morpholino-3-phenylpropyl)cyclohexyl)-2-(2-(2,4,6-trichloro-N-methylphenylsulfonamido)ethoxy)acetamide] the same measures were 16%, 41% and 8%.
As to `CN(C)C(c1ccccc1)C1CCC(CNC(=O)COC2CCCN(S(=O)(=O)c3c(Cl)cc(Cl)cc3Cl)C2)CC1` (stereo not drawn) [Example 621, N-[4-(dimethylaminophenylmethyl)-cyclohexylmethyl]-2-[1-(2,4,6-trichlorobenzenesulfonyl)-piperidin-3-yloxy]-acetamide], the inhibition at 10 µM in experiment [1] (Ca2+ FLIPR, CHO K1 rB1R cells) was determined as 0%; in experiment [2] (Ca2+ FLIPR, CHO K1 hB1R cells) it was 88%. Moreover, on human μ opiate receptor (Table 2, read-out: μ receptor), the inhibition at 1 µM turned out to be 90%.
`COc1cc(C)c(S(=O)(=O)N2CCCCC2COCC(=O)N2CCC(C(Cc3ccccc3)N3CCN(C)CC3)CC2)c(C)c1` (stereo not drawn) [Example 802, 2-((1-(4-methoxy-2,6-dimethylphenylsulfonyl)piperidin-2-yl)methoxy)-1-(4-(1-(4-methylpiperazin-1-yl)-2-phenylethyl)piperidin-1-yl)ethanone]: the inhibition at 10 µM in experiment [1] (setting [4]) was found to be 97%; in experiment [2] (setting [4]), 106%. Also, the inhibition at 1 µM at human μ opiate receptor (setting [3]) is 27%.
Turning to `COc1cc(C)c(S(=O)(=O)N(C)CCOCC(=O)NCC2CCC(C(CCc3ccccc3)N3CCCC3)CC2)c(C)c1` (stereo not drawn) [Example 720, 2-(2-(4-methoxy-N,2,6-trimethylphenylsulfonamido)ethoxy)-N-((4-(3-phenyl-1-(pyrrolidin-1-yl)propyl)cyclohexyl)methyl)acetamide], the inhibition at 10 µM in experiment [1] (Ca2+ FLIPR, CHO K1 rB1R cells) is 101%; in experiment [2] (Ca2+ FLIPR, CHO K1 hB1R cells), 101%. Besides, on human μ opiate receptor (setting [3]), the inhibition at 1 µM amounted to 26%.
With `CN(CCOCC(=O)NC1CCC(C(c2ccccc2)N2CCCC2)CC1)S(=O)(=O)c1ccc(Cl)cc1Cl` (stereo not drawn) [Example 627, 2-(2-(2,4-dichloro-N-methylphenylsulfonamido)ethoxy)-N-(4-(phenyl(pyrrolidin-1-yl)methyl)cyclohexyl)acetamide], the inhibition at 10 µM in experiment [1] (Ca2+ FLIPR, CHO K1 rB1R cells) was 35%; in experiment [2] (Ca2+ FLIPR, CHO K1 hB1R cells), 75%. Besides, at human μ opiate receptor (setting [3]), the inhibition at 1 µM was 69%.
With `COc1cc(C)c(S(=O)(=O)N2CCCC(COCC(=O)NC3CCC(C(c4ccccc4)N4CCCC4)CC3)C2)c(C)c1` (stereo not drawn) [Example 654, 2-((1-(4-methoxy-2,6-dimethylphenylsulfonyl)piperidin-3-yl)methoxy)-N-(4-(phenyl(pyrrolidin-1-yl)methyl)cyclohexyl)acetamide], the inhibition at 10 µM came to 46% in experiment [1] (Ca2+ FLIPR, CHO K1 rB1R cells) and 80% in experiment [2] (Ca2+ FLIPR, CHO K1 hB1R cells). Further, the inhibition at 1 µM at human μ opiate receptor (setting [3]) was 53%.
Taken in the same sequence, the figures for `COc1cc(C)c(S(=O)(=O)N2CCCC2COCC(=O)NCC2CCC(C(CCc3ccccc3)N3CCOCC3)CC2)c(C)c1` (stereo not drawn) [Example 749, 2-((1-(4-methoxy-2,6-dimethylphenylsulfonyl)pyrrolidin-2-yl)methoxy)-N-((4-(1-morpholino-3-phenylpropyl)cyclohexyl)methyl)acetamide] were 109%, 103% and 12%.
For the molecule `O=C(COC1CCN(S(=O)(=O)c2c(Cl)cc(Cl)cc2Cl)C1)NC1CCC(C(c2ccccc2)N2CCOCC2)CC1` (stereo not drawn) [Example 685, N-(4-(morpholin(phenyl)methyl)cyclohexyl)-2-(1-(2,4,6-trichlorophenylsulfonyl)pyrrolidin-3-yloxy)acetamide], the “B1R Ant. r [10 μM] % Inhibition” value in experiment [1] (B1R antagonism rat, Ca2+ FLIPR, CHO K1 rB1R cells) was found to be 18%. For the same molecule, the μ on human μ opiate receptor (Table 3, to be read in the same way as Table 1) came to 3 % inhibition. The “B1R Ant. h [10 μM] % Inhibition” value in experiment [2] (B1R antagonism human, Ca2+ FLIPR, CHO K1 hB1R cells) is listed as 13%.
In the case of `O=C(COCC1CCCN1S(=O)(=O)c1c(Cl)cc(Cl)cc1Cl)NC1CCC(C(CCc2ccccc2)N2CCOCC2)CC1` (stereo not drawn) [Example 696, N-(4-(1-morpholino-3-phenylpropyl)cyclohexyl)-2-((1-(2,4,6-trichlorophenylsulfonyl)pyrrolidin-2-yl)methoxy)acetamide], the inhibition at 10 µM in experiment [1] (Ca2+ FLIPR, CHO K1 rB1R cells) is 91%; in experiment [2] (Ca2+ FLIPR, CHO K1 hB1R cells), 43%. For the same molecule, the inhibition at 1 µM on human μ opiate receptor (setting [3]) is 21%.
Taken in the same sequence, the figures for `COc1cc(C)c(S(=O)(=O)N2CCCC(COCC(=O)NCC3CCC(C(c4ccccc4)N4CCCC4)CC3)C2)c(C)c1` (stereo not drawn) [Example 655, 2-((1-(4-methoxy-2,6-dimethylphenylsulfonyl)piperidin-3-yl)methoxy)-N-((4-(phenyl(pyrrolidin-1-yl)methyl)cyclohexyl)methyl)acetamide] were 74%, 71% and 38%.
Turning to `COc1cc(C)c(S(=O)(=O)N2CCCCC2COCC(=O)N2CCC(C(c3ccccc3)N3CCN(C)CC3)CC2)c(C)c1` (stereo not drawn) [Example 807, 2-((1-(4-methoxy-2,6-dimethylphenylsulfonyl)piperidin-2-yl)methoxy)-1-(4-((4-methylpiperazin-1-yl)(phenyl)methyl)piperidin-1-yl)ethanone], the inhibition at 10 µM is 98% in experiment [1] (setting [4]) and 105% in experiment [2] (setting [4]). The inhibition at 1 µM on human μ opiate receptor (setting [3]) amounted to 11%.
Turning to `O=C(COC1CCN(S(=O)(=O)c2c(Cl)cc(Cl)cc2Cl)C1)NCC1CCC(C(CCc2ccccc2)N2CCCC2)CC1` (stereo not drawn) [Example 723, N-((4-(3-phenyl-1-(pyrrolidin-1-yl)propyl)cyclohexyl)methyl)-2-(1-(2,4,6-trichlorophenylsulfonyl)pyrrolidin-3-yloxy)acetamide], the inhibition at 10 µM came out at 40% in experiment [1] (Ca2+ FLIPR, CHO K1 rB1R cells) and 90% in experiment [2] (Ca2+ FLIPR, CHO K1 hB1R cells). Further, the inhibition at 1 µM at human μ opiate receptor (setting [3]) stood at 35%.
Taken in the same sequence, the figures for `COc1cc(C)c(S(=O)(=O)N2CCC(OCC(=O)NCC3CCC(C(c4ccccc4)N4CCCC4)CC3)C2)c(C)c1` (stereo not drawn) [Example 645, 2-(1-(4-methoxy-2,6-dimethylphenylsulfonyl)pyrrolidin-3-yloxy)-N-((4-(phenyl(pyrrolidin-1-yl)methyl)cyclohexyl)methyl)acetamide] were 100%, 101% and 38%.
Turning to `COc1cc(C)c(S(=O)(=O)N(C)CCOCC(=O)NC2CCC(C(CCc3ccccc3)N3CCOCC3)CC2)c(C)c1` (stereo not drawn) [Example 662, 2-(2-(4-methoxy-N,2,6-trimethylphenylsulfonamido)ethoxy)-N-(4-(1-morpholino-3-phenylpropyl)cyclohexyl)acetamide], the inhibition at 10 µM in experiment [1] (Ca2+ FLIPR, CHO K1 rB1R cells) turned out to be 101%; in experiment [2] (Ca2+ FLIPR, CHO K1 hB1R cells) it was 104%. The inhibition at 1 µM at human μ opiate receptor (setting [3]) stood at 3%.
For the molecule `O=C(COCC1CCCCN1S(=O)(=O)c1c(Cl)cc(Cl)cc1Cl)NC1CCC(C(c2ccccc2)N2CCCC2)CC1` (stereo not drawn) [Example 653, N-(4-(phenyl(pyrrolidin-1-yl)methyl)cyclohexyl)-2-((1-(2,4,6-trichlorophenylsulfonyl)piperidin-2-yl)methoxy)acetamide], the inhibition at 10 µM in experiment [1] (Ca2+ FLIPR, CHO K1 rB1R cells) was 95%; in experiment [2] (Ca2+ FLIPR, CHO K1 hB1R cells) it was 101%. On human μ opiate receptor (setting [3]), the inhibition at 1 µM turned out to be 94%.
Take `COc1cc(C)c(S(=O)(=O)N2CCCCC2COCC(=O)NCC2CCC(C(CCc3ccccc3)N3CCOCC3)CC2)c(C)c1` (stereo not drawn) [Example 753, 2-((1-(4-methoxy-2,6-dimethylphenylsulfonyl)piperidin-2-yl)methoxy)-N-((4-(1-morpholino-3-phenylpropyl)cyclohexyl)methyl)acetamide]: the inhibition at 10 µM in experiment [1] (Ca2+ FLIPR, CHO K1 rB1R cells) is 103%; in experiment [2] (Ca2+ FLIPR, CHO K1 hB1R cells) it was 104%. In addition, on human μ opiate receptor (setting [3]), the inhibition at 1 µM was determined as 17%.

These data come from US8106055B2, “Substituted amide compounds” (Gruenenthal GmbH, priority 2007, dated 2012).
